PubChem BioAssay (NCI)
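In this assay, cells in 96-well plates receive the compound at five concentrations for 48 hours. Endpoints are linearly interpolated between the surrounding concentrations. GI50 = concentration required for 50% inhibition of growth. TGI denotes the concentration required for complete inhibition of growth.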

Assays:
Assay in all cases: NCI anticancer screen, dose series, 48 h
NCI-H226 lung = system: NCI-H226 lung
KM12 colon = system: KM12 colon
RPMI-8226 leukemia = system: RPMI-8226 leukemia
EKVX NSCLC = system: EKVX NSCLC
UACC-62 melanoma = system: UACC-62 melanoma
NCI-H522 lung = system: NCI-H522 lung
HOP-92 NSCLC = system: HOP-92 NSCLC
CCRF-CEM leukemia = system: CCRF-CEM leukemia
SK-MEL-5 melanoma = system: SK-MEL-5 melanoma
NCI-H460 lung = system: NCI-H460 lung

SMILES | TGI (NCI-H226 lung) [µM] | TGI (KM12 colon) [µM] | TGI (RPMI-8226 leukemia) [µM] | TGI (EKVX NSCLC) [µM] | TGI (UACC-62 melanoma) [µM] | TGI (NCI-H522 lung) [µM] | TGI (HOP-92 NSCLC) [µM] | TGI (CCRF-CEM leukemia) [µM] | TGI (SK-MEL-5 melanoma) [µM] | TGI (NCI-H460 lung) [µM] | GI50 (NCI-H226 lung) [µM] | GI50 (KM12 colon) [µM] | GI50 (RPMI-8226 leukemia) [µM] | GI50 (EKVX NSCLC) [µM] | GI50 (UACC-62 melanoma) [µM] | GI50 (NCI-H522 lung) [µM] | GI50 (HOP-92 NSCLC) [µM] | GI50 (CCRF-CEM leukemia) [µM] | GI50 (SK-MEL-5 melanoma) [µM] | GI50 (NCI-H460 lung) [µM]
NS(=O)(=O)c1ccc(NC(=O)c2cccc3c(=O)c4ccccc4[nH]c23)cc1 | > 100 | 73.6 | > 100 | > 100 | > 100 | 65.4 | > 100 | > 100 | > 100 | > 100 | – | – | – | – | – | – | – | – | – | –
C=C(COC(C)=O)CC(/C=C(\C)CCC=C(C)C)OC(C)=O (stereo not drawn) | > 100 | > 100 | – | > 100 | > 100 | > 100 | > 100 | > 100 | > 100 | > 100 | – | – | – | – | – | – | – | – | – | –
CCn1c(-c2nonc2N)nc2ccc(F)cc21 | > 25 | > 25 | > 25 | > 25 | > 25 | > 25 | > 25 | > 25 | > 25 | > 25 | > 25 | > 25 | > 25 | > 22.2 | > 25 | > 25 | 7.36 | > 25 | > 25 | > 25
CC(=O)OCCOCBr | > 100 | > 100 | > 100 | > 100 | > 100 | > 100 | > 100 | > 100 | > 100 | > 100 | – | – | – | – | – | – | – | – | – | –
CNC(=O)c1cn(C[C@H](F)CCc2ccc(NC(=O)Cc3cc(OC4CC(F)(F)C4)cc(C)n3)nn2)nn1 | > 100 | > 100 | > 100 | > 100 | > 100 | > 100 | > 100 | > 100 | > 100 | > 100 | – | > 100 | 5.65 | > 100 | > 100 | 5.18 | 23 | > 45.8 | > 100 | > 100
COc1ccc(C2C(N)=NCC2c2ccccn2)cc1 (stereo not drawn) | > 100 | > 100 | > 100 | > 100 | > 100 | > 100 | > 100 | > 100 | > 100 | > 100 | – | – | – | – | – | – | – | – | – | –
CCCNCc1cc(C)cc2c1nc(N1CCNCC1)n2Cc1cc(C)c(F)c(C)c1 | 38.2 | 11.7 | 5.29 | 22.6 | 3.66 | 5.67 | 6.49 | 4.71 | 3.21 | 4.03 | 19.1 | 3.08 | 2.09 | 9.56 | 1.87 | 2.09 | 1.83 | 2.2 | 1.75 | 1.93
C=C1C(=O)O[C@H]2[C@H]1CC/C(COC(=O)c1cc3cc(OC)ccc3[nH]1)=C\CC[C@@]1(C)O[C@@H]21 | 3.94 | 3.33 | 3.87 | 3.1 | 2.72 | 2.28 | 1.83 | 1.57 | 3.17 | 3.84 | 1.57 | 1.54 | 0.509 | 1.5 | 1.38 | 0.701 | 0.445 | 0.348 | 1.74 | 1.83
